Experimental findings from PMC7664879, “Discovery of 12O—A Novel Oral Multi-Kinase Inhibitor for the Treatment of Solid Tumor” (Molecules, 2020) are described below.

One test concerns the target T1, c-Kit(h) (Homo sapiens, UniProt P10721).
T1 construct: purchased Eurofins (KinaseProfiler service)
As to the kind of experiment: Kinase inhibition assay (Eurofins KinaseProfiler). It is filed as biochemical. The note with it: ATP at Km. As for the experimental part: Kinase inhibition profiles were determined using KinaseProfiler services provided by Eurofins, and ATP concentrations used are the Km of corresponding kinases.
c-Kit (h) was incubated with 8 mM MOPS pH 7.0, 0.2 mM EDTA, 10 mM MnCl2, 0.1 mg/mL poly(Glu, Tyr) 4:1, 10 mM MgAcetate and [gamma-33P]-ATP.
All the reactions above were initiated by the addition of the Mg/ATP mix. After incubation for 40 min at room temperature, the reaction was stopped by the addition of phosphoric acid to a concentration of 0.5%. An amount of 10 µL of the reaction was then spotted onto a P30 filtermat and washed four times for 4 min in 0.425% phosphoric acid and once in methanol prior to drying and scintillation counting.

A further test has as its system H460. As to the kind of experiment: CCK-8 cell growth inhibition, H460. It is filed as cell-based, human. The note with it: Homo sapiens, NCI-H460; lung cancer; CCK-8 assay, 72-h incubation. Here is the method:
(§1) In vitro anticancer screening of all newly synthesized compounds towards human solid tumor cells, cervical (SiHa) and ovarian (SKOV3) cancer cell lines, was carried out by standard CCK-8 assay with cisplatin as the positive control, as cisplatin is one of the most used chemotherapy drugs. […] The compound was further evaluated in a dose response study against a panel of solid tumor cells, including cervical cancer cell lines (SiHa and HeLa), ovarian cancer cell lines (SKOV3 and OVCAR-5), breast cancer cell lines (4T1 and MCF-7), lung cancer cell lines (A549 and H460) to test cytotoxic activity. The IC50 values were summarized in Table 2, including the cytotoxic activity of the cisplatin used as reference compound.
(§2) The viability of cells as determined using the CCK8 assay method. Cells were seeded (2000–3000 cells per well) in 96-well plates. After incubation for 24 h in serum-containing media, the cells were treated with drugs at different concentrations diluted with culture medium for 72 h at 37 °C with a 5% CO2 atmosphere. […] Finally, absorbance values of test wells (AS), control wells (AC) and blank wells (Ab) at 450 nm were read using the Microplate Reader (Promega, WI). Inhibition ratios were calculated as follows: [(AC − AS)/ (AC−Ab)] × 100%. IC50 values were calculated using GraphPad software.

A further test deals with SiHa cells. As to the kind of experiment: Cell cycle assay (propidium iodide, flow cytometry). The class given is cell-based, human. As to conditions: 0.04 μM, 24 h. As for the experimental part: To understand how 12O inhibited cell proliferation, cell cycle analysis was performed. The effect of 12O on cell cycle distribution was assessed in the SiHa cell lines. […] Of note, 12O at 0.04 μM was able to increase the proportion of the cells in the G2/M phase from approximately 16.0 ± 1.3% (DMSO) to 22.3 ± 0.7%, and decreased the corresponding fraction of the cells in the S phase from about 22.8 ± 0.4 % (DMSO) to 16.1 ± 1.1 % (Figure 3).
Cells were plated on 6-well culture plates at a density of 5 × 10^5 cells/mL. The cells were treated with the indicated concentrations of 12O or ribociclib for 24 h after their adherence. Cells were washed with PBS for three times and then fixed with ice cold 75% ethanol overnight. The fixed cells were then washed with PBS and stained with propidium iodide ([…]) in the presence of RNase A (0.5 mg) for 30 min at 37 °C. The stained cells were then subjected to flow cytometry (Becton Dickinson (BD), San Jose, CA, USA.) for cell cycle analysis.
On the technique in general: Flow cytometry measures light scatter and fluorescence of single cells or particles in a stream.

Another test relates to 4T1. The experiment in a line: CCK-8 cell growth inhibition, 4T1. It is filed as cell-based. As to conditions: Mus musculus, 4T1; breast cancer; CCK-8 assay, 72-h incubation. Here is the method: as §1, §2
In general terms: Tetrazolium assays rely on reduction of a dye to a coloured formazan, in cell work by metabolically active cells.

In another test the test system is A549. As to the kind of experiment: CCK-8 cell growth inhibition, A549. As to conditions: Homo sapiens, A549; lung cancer; CCK-8 assay, 72-h incubation. It is filed as cell-based, human. As for the experimental part: as §1, §2

T1 sequence (P10721 26-976): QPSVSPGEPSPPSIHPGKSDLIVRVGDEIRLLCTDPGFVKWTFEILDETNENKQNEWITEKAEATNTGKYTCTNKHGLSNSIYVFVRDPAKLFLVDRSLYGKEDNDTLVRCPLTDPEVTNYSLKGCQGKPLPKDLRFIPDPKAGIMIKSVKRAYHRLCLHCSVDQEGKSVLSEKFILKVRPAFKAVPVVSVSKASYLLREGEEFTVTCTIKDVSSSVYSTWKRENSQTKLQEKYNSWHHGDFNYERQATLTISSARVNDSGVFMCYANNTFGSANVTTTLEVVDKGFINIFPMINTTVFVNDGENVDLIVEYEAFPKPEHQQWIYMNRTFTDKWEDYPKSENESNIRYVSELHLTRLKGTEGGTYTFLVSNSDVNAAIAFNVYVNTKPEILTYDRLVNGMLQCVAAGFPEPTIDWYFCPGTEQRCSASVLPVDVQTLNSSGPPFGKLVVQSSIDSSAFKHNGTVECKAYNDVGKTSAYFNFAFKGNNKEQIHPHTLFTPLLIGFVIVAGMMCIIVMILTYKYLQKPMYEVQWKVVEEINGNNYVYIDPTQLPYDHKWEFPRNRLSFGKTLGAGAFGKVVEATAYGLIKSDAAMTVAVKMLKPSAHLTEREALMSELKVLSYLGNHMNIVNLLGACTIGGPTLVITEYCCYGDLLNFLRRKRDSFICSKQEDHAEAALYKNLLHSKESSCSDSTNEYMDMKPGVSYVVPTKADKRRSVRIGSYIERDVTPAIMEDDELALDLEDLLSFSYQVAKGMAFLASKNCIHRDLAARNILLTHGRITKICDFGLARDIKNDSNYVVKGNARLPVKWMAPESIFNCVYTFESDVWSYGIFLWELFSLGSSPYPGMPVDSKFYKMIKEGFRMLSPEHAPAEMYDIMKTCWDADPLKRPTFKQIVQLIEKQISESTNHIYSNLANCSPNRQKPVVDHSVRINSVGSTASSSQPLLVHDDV

With `CC(C)n1nnc2ccc(-c3nc(Nc4ccc(CNC(=O)C5(C(=O)Nc6ccccc6)CC5)cc4)ncc3F)cc21` [12O], 1 µM produced 15% inhibition against c-Kit(h). The 50% inhibitory concentration (IC50) in the test with H460 was found to be 0.041 µM; in the test on 4T1, 0.068 µM; in the test with A549, 0.035 µM. Besides, the “proportion of the cells in the G2/M phase” value in the test on SiHa cells (DMSO 16.0 ± 1.3%) came out at 22.3 ± 0.7%. The “fraction of the cells in the S phase” value in the test on SiHa cells (DMSO 22.8 ± 0.4 %) stood at 16.1 ± 1.1%.

One may read the inhibition as the relative decrease from the control value, in per cent. A high value points to a response far below the control. The IC50 is the concentration needed to halve the response being measured. A high value points to weaker potency in that assay.
